# Source: ChEMBL document CHEMBL3351221, “Synthetic derivatives of aromatic abietane diterpenoids and their biological activities” (Eur J Med Chem, 2014)
# Columns and labels:
# [1] = test system: Rattus norvegicus; experiment: Antiulcer activity in rat assessed as inhibition of pepsin activity at 100 mg/kg; format: functional
# [2] = test system: Fusarium graminearum; experiment: Antimicrobial activity against Fusarium graminearum assessed as inhibition of microbial growth at 50 ug/ml; format: functional
# [3] = test system: Fusarium oxysporum; experiment: Antimicrobial activity against Fusarium oxysporum assessed as inhibition of microbial growth at 50 ug/ml; format: functional
# [4] = test system: Botryosphaeria berengeriana; experiment: Antimicrobial activity against Physalospora pyricola assessed as inhibition of microbial growth at 50 ug/ml; format: functional
# [5] = test system: Bacillus subtilis; experiment: Antimicrobial activity against Bacillus subtilis; format: functional
# [6] = test system: Pseudomonas fluorescens; experiment: Antimicrobial activity against Pseudomonas fluorescens; format: functional
# [7] = test system: Escherichia coli; experiment: Antimicrobial activity against Escherichia coli; format: functional
# [8] = test system: Staphylococcus aureus; experiment: Antimicrobial activity against Staphylococcus aureus; format: functional
# [9] = test system: HepG2; experiment: Cytotoxicity against human HepG2 cells; format: functional, cell-based
# [10] = test system: SMMC-7721; experiment: Cytotoxicity against human SMMC7721 cells; format: functional, cell-based
# [11] = test system: A549; experiment: Cytotoxicity against human A549 cells; format: functional, cell-based
# [12] = Cytotoxicity against human AZ-521 cells; format: functional, cell-based
# [13] = Cytotoxicity against human SKBR3 cells; format: functional, cell-based; conditions: SK-BR-3
# [14] = Cytotoxicity against human HL60 cells; format: functional, cell-based; conditions: HL-60
# [15] = Cytotoxicity against human SKMES1 cells; format: functional, cell-based; conditions: SK-MES-1
# [16] = test system: SMMC-7721; experiment: Cytotoxicity against human SMMC7721 cells assessed as growth inhibition at 0.1 uM; format: functional
# [17] = test system: SMMC-7721; experiment: Cytotoxicity against human SMMC7721 cells assessed as growth inhibition at 0.1 uM after 72 hrs; format: functional; conditions: SMMC-7721, 72 h
# [18] = Cytotoxicity against human PC3 cells; format: functional, cell-based; conditions: PC-3
# [19] = Cytotoxicity against human Hey-1B cells; format: functional, cell-based
# [20] = biological target: Androgen receptor (Homo sapiens, UniProt P10275); experiment: Binding affinity to androgen receptor (unknown origin)
# Chain of Androgen receptor (P10275 whole entry): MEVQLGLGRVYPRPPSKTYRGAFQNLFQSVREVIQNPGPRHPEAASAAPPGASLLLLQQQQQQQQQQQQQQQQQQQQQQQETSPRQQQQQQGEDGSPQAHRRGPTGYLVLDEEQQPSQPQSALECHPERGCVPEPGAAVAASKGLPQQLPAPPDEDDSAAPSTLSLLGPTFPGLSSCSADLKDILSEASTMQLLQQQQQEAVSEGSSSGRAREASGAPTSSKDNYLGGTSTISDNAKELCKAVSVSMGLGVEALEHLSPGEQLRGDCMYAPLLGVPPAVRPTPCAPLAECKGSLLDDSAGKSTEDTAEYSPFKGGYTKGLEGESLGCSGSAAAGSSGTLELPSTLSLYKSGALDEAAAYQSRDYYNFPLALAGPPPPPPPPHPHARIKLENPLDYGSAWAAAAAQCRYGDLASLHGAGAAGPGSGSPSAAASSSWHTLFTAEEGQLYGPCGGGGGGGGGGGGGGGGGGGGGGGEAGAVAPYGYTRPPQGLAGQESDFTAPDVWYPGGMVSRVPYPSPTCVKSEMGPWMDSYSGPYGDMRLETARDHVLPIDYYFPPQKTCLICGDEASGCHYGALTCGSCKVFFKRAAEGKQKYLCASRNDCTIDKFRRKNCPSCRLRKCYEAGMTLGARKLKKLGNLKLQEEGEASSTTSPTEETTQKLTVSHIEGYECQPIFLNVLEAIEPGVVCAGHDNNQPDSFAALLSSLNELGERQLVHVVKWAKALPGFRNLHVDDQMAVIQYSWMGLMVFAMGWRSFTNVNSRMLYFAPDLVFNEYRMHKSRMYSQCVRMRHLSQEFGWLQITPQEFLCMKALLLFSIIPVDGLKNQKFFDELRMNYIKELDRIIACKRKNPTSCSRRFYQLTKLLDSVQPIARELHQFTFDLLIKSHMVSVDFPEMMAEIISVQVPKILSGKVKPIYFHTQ
# [21] = test system: EJ; experiment: Cytotoxicity against human EJ cells; format: functional, cell-based; conditions: pooled result: one value given for 4 cell lines, strains, targets or settings
# [22] = biological target: Fibroblast growth factor receptor 1 (Homo sapiens, UniProt P11362); experiment: Inhibition of FGFR1 (unknown origin)
# Chain of Fibroblast growth factor receptor 1 (P11362 whole entry): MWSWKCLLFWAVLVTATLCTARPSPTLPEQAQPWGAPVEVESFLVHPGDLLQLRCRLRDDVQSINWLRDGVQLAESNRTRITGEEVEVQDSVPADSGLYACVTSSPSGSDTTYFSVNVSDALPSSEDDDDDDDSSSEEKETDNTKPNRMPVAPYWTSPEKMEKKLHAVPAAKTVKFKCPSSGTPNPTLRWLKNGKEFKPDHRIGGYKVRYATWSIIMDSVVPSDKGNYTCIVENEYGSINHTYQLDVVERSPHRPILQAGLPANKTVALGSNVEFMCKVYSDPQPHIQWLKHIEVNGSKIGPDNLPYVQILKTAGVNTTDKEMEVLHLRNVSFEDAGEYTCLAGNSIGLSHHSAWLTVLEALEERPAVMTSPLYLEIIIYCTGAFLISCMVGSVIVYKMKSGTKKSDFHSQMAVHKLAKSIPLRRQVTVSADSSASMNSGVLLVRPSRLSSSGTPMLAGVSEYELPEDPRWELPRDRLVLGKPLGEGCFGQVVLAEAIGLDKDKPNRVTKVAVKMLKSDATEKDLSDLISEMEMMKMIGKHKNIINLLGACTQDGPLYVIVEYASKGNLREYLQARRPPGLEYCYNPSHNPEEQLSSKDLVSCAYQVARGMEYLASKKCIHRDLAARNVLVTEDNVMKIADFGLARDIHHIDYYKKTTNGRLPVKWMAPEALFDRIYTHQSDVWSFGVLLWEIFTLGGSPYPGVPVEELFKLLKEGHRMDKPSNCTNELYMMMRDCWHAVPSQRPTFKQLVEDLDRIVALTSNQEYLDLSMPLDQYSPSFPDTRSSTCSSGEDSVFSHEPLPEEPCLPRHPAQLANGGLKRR
# [23] = Antioxidant activity assessed as DPPH radical scavenging activity; format: physicochemical
# [24] = test system: superoxide anion radical; experiment: Antioxidant activity assessed as superoxide anion radical scavenging activity relative to untreated control
# [25] = test system: Leishmania infantum; experiment: Antimicrobial activity against Leishmania infantum; format: functional, organism-based
# [26] = test system: Leishmania braziliensis; experiment: Antimicrobial activity against Leishmania braziliensis; format: functional, organism-based
# [27] = test system: Rattus norvegicus; experiment: Antiulcer activity in rat assessed as inhibition of secretion at 30 mg/kg, ip; format: functional; conditions: route intraperitoneal
# [28] = test system: Mus musculus; experiment: Gastroprotective activity in mouse assessed as reduction in HCl/EtOH-induced gastric lesions at 100 mg/kg; format: functional; conditions: Stomach
smiles,measurement,setting,value
CC(C)c1cc2c(cc1S(=O)(=O)O)[C@@]1(C)CCC[C@@](C)(C(=O)O)[C@@H]1CC2,inhibition in vivo at 100 mg/kg,[1]; Rattus norvegicus,92%
CC(C)c1cc2c(cc1S(=O)(=O)[O-])[C@@]1(C)CCC[C@@](C)(C(=O)[O-])[C@@H]1CC2.[Na+].[Na+],inhibition (INH),[1],92%
CC(C)c1ccc2c(c1)CC[C@H]1[C@](C)(c3nnc4s/c(=C\c5ccc(O)cc5)c(=O)n34)CCC[C@]21C,inhibition at 50 µg/mL,[2],70.9%
CC(C)c1ccc2c(c1)CC[C@H]1[C@](C)(c3nnc4s/c(=C\c5ccccc5)c(=O)n34)CCC[C@]21C,inhibition at 50 µg/mL,[3],51.9%
COc1ccc(/C=c2\sc3nnc([C@]4(C)CCC[C@]5(C)c6ccc(C(C)C)cc6CC[C@@H]45)n3c2=O)cc1,inhibition at 50 µg/mL,[4],56.8%
CC(C)c1ccc2c(c1)CC[C@H]1[C@](C)(C(=O)N/N=C/c3ccc([N+](=O)[O-])o3)CCC[C@]21C,MIC,[5],1.9 µg/mL
same,MIC,[6],3.9 µg/mL
same,MIC,[7],3.9 µg/mL
same,MIC,[8],1.9 µg/mL
CC(C)c1ccc2c(c1)CC[C@H]1[C@](C)(C(=O)N/N=C/c3cc(Cl)ccc3O)CCC[C@]21C,MIC,[6],3.9 µg/mL
same,MIC,[7],3.9 µg/mL
CC(C)c1ccc2c(c1)CC[C@H]1[C@](C)(NC(N)=O)CCC[C@]21C,IC50,[9],1.21 µg/mL
same,IC50,[10],8.8 µM
COC(=O)[C@H](Cc1ccc(O)cc1)NC(=O)[C@]1(C)CCC[C@]2(C)c3ccc(C(C)C)cc3CC[C@@H]12,IC50,[11],7.1 µM
same,IC50,[12],3.9 µM
same,IC50,[13],8.1 µM
same,IC50,[14],2300 nM
CC(C)c1ccc2c(c1)CC[C@H]1[C@](C)(COC(=O)CCc3cn(-c4ccccc4)nn3)CCC[C@]21C,IC50,[15],6.1 µM
CC(C)c1ccc2c(c1)CC[C@H]1[C@](C)(CNC(c3ccc(F)cc3)P(=O)(Oc3ccccc3)Oc3ccccc3)CCC[C@]21C (some centres not stated),inhibition at 0.1 µM,[16],75%
CC(C)c1ccc2c(c1)CC[C@H]1[C@](C)(CNC(c3ccc(C(F)(F)F)cc3)P(=O)(Oc3ccccc3)Oc3ccccc3)CCC[C@]21C (some centres not stated),inhibition at 0.1 µM,[16],79%
CCOP(=O)(OCC)C(NC[C@]1(C)CCC[C@]2(C)c3ccc(C(C)C)cc3CC[C@@H]12)c1ccc([N+](=O)[O-])cc1O (some centres not stated),inhibition at 0.1 µM,[17],99%
CC(C)c1cc2c(cc1[N+](=O)[O-])[C@@]1(C)CCC[C@@](C)(CNC(=O)c3ccccc3)[C@@H]1CC2=O,IC50,[9],67.9 µg/mL
CC(C)c1ccc2c(c1)C(=O)C[C@H]1[C@](C)(CNC(=O)c3ccccc3)CCC[C@]21C,IC50,[18],5.7 µg/mL
same,IC50,[19],11.3 µg/mL
same,IC50,[20],83.8 µM
C=CC1CN2CCC1CC2C(NC(=S)NC[C@]1(C)CCC[C@]2(C)c3ccc(C(C)C)cc3CC[C@@H]12)c1ccnc2ccc(OC)cc12 (some centres not stated),IC50,[21],2070 nM
same,IC50,[18],2070 nM
CC(C)c1ccc2c(c1)CC[C@H]1[C@](C)(C/N=C/c3c(O)ccc4ccccc34)CCC[C@]21C,IC50,[22],1200 nM
CC(C)c1ccc2c(c1)C(=O)C[C@H]1[C@](C)(CNC(=O)c3cc(O)c(O)c(O)c3)CCC[C@]21C,IC50,[23],2 mg/L
same,inhibition (INH),[24],38.18%
COC(=O)[C@@]1(C)CCC[C@]2(C)c3cc(O)c(C(C)(C)O)cc3CC[C@@H]12,IC50,[25],14 µM
same,IC50,[26],14 µM
COC(=O)[C@@]1(C)CCC[C@]2(C)c3cc(O)c(C(C)C)cc3CC[C@@H]12,IC50,[25],14 µM
same,IC50,[26],14 µM
CC(C)c1cc2c(cc1O)[C@@]1(C)CCC[C@](C)(CO)[C@@H]1CC2,IC50,[25],14 µM
same,IC50,[26],14 µM
NCC[C@H](O)C(=O)N[C@@H]1C[C@H](N)[C@@H](O[C@H]2O[C@H](CN)[C@@H](O)[C@H](O)[C@H]2O)[C@H](O)[C@H]1O[C@H]1O[C@H](CO)[C@@H](O)[C@H](N)[C@H]1O [AMIKACIN],MIC,[5],0.9 µg/mL
same,MIC,[8],0.9 µg/mL
O=C1O[C@H]([C@@H](O)CO)C(O)=C1O [ASCORBIC ACID],IC50,[23],236 mg/L
CC(C)c1ccc2c(c1)CC[C@H]1[C@](C)(C(=O)O)CCC[C@]21C [DEHYDROABIETIC ACID],inhibition in vivo at 30 mg/kg,[27],22%
same,inhibition in vivo at 100 mg/kg,[28],59%
COc1cc([C@@H]2c3cc4c(cc3[C@@H](O[C@@H]3O[C@@H]5CO[C@@H](C)O[C@H]5[C@H](O)[C@H]3O)[C@H]3COC(=O)[C@H]23)OCO4)cc(OC)c1O [ETOPOSIDE],IC50,[15],1.83 µM
